Data reported in PMC4266362 (Journal of Medicinal Chemistry, 2014).

Key:
glucagon receptor (GR) = glucagon receptor (GR) (Homo sapiens, UniProt P47871); assay: duplexed calcium mobilization assay, glucagon receptor; assay type: cell-based; conditions: EC20 of glucagon
[1] = biological target: melanocortin 4 receptor (MC4R) (Homo sapiens, UniProt P32245); assay: counter-screen against melanocortin 4 receptor; assay type: cell-based
human GLP-1R = human GLP-1R (Homo sapiens, UniProt P43220); assay: calcium mobilization PAM assay in human GLP-1R 9-3-H cells; assay type: cell-based
Chain of human GLP-1R (P43220 24-463): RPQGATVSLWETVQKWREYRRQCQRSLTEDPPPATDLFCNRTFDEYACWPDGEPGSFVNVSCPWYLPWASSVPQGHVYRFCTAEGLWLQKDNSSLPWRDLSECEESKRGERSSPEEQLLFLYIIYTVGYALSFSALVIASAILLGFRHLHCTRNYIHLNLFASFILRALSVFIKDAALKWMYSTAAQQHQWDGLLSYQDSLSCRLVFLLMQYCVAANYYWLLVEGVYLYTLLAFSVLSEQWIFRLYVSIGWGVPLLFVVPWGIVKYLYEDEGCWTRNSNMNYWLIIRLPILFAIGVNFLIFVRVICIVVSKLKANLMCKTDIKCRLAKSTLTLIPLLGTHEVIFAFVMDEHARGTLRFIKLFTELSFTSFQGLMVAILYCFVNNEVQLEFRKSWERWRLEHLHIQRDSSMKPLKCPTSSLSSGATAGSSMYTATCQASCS

primary mouse islets = assay: glucose-stimulated insulin secretion, static islet incubation; assay type: cell-based
[2] = in vivo rat pharmacokinetics; conditions: male, Sprague-Dawley, plasma
[3] = in vivo rat brain distribution; conditions: Sprague-Dawley, intraperitoneal, 10 mg/kg
rats = assay: spontaneous locomotor activity; assay type: in vivo; conditions: rat, 10–30 mg/kg i.p.
[4] = test system: 68 GPCRs, ion channels, and transporters; assay: Eurofin radioligand binding panel; conditions: 10 μM, 68 targets
[5] = liver microsome predicted hepatic clearance, rat; assay type: in vitro ADME; conditions: well-stirred model

Chain of glucagon receptor (GR) (P47871 26-477, species assumed): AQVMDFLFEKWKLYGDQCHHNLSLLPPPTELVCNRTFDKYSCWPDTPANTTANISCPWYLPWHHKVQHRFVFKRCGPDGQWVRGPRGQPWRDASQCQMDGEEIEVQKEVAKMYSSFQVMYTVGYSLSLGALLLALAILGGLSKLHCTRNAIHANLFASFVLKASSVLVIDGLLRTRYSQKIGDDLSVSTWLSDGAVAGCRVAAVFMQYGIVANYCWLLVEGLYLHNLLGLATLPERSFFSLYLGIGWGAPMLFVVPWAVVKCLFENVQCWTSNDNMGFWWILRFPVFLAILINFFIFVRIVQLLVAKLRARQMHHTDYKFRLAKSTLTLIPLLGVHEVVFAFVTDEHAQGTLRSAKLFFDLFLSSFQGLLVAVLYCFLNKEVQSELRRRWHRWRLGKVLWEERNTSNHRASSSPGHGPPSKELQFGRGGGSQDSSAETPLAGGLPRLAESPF
Chain of melanocortin 4 receptor (MC4R) (P32245 whole entry, species assumed): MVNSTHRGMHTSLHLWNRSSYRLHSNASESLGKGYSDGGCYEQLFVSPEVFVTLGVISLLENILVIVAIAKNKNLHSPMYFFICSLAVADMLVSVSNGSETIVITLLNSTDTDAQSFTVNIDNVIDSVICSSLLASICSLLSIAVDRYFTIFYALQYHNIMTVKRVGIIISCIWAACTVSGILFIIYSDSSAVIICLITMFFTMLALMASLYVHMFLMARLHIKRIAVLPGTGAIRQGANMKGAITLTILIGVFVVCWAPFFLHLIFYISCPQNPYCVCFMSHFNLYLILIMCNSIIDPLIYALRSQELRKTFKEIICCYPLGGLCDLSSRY

SMILES	activity at GR (glucagon receptor (GR))	activity at MC4R [1]	GLP-1R PAM activity / mode (pure PAM or ago-PAM) (human GLP-1R; calcium mobilization)	effect on insulin secretion (primary mouse islets; 30 μM, in presence of 10 nM 1, low (5.6 mM) and high (11 mM) glucose, 60 min)	half-life ([2]; intravenous, 1 mg/kg)	Tmax [3]	effect on spontaneous locomotor activity (rats)	highest inhibition in radioligand binding panel [4]	calcium response in the absence of GLP-1 (human GLP-1R; compound alone)	potentiation of glucose-stimulated insulin secretion (primary mouse islets; primary mouse islets, in the presence of 2)	rat CLHEP [5]	clearance [2]
CCN1CCCC1CNC(=O)c1cn(C2CCCC2)c(=O)c2c1c1ccccc1n2C (stereo not shown) [compound 8]	inactive	inactive										
CC(C)N1CCC[C@H]1CNC(=O)c1cn(C2CCCC2)c(=O)c2c1c1ccccc1n2C [(S)-9b, (S)-2-Cyclopentyl-N-((1-isopropylpyrrolidin-2-yl)methyl)-9-methyl-1-oxo-2,9-dihydro-1H-pyrido[3,4-b]indole-4-carboxamide]			ago-PAMs	significantly increased insulin secretion	~60 min	30 min	no effect on locomotion or sedative effects	≤ 50%				
CCN1CCC[C@H]1CNC(=O)c1cn(C2CCCC2)c(=O)c2c1c1ccccc1n2C [(S)-8]	no effect								no calcium response	~1.5 fold	69 mL/min/kg	92 mL/min/kg
